Assay results from the kinase profiling compilation of Christmann-Franck et al. (2016).

Experiments:
Experiment in all cases: radiometric filter-binding kinase assay, Kinase HotSpot
Conditions in all cases: compound 0.5 µM; ATP 10 µM
BLK (human) = BLK (human) (UniProt P51451)
BMX (human) = BMX (human) (UniProt P51813)
CDK4 CCND3 (human) = CDK4 CCND3 (human) (UniProt P30281+P11802)
CDK7 CCNH MNAT1 (human) = CDK7 CCNH MNAT1 (human) (UniProt P50613+P51948+P51946)
CSNK1D (human) = CSNK1D (human) (UniProt P48730)
DCLK2 (human) = DCLK2 (human) (UniProt Q8N568)
DDR2 (human) = DDR2 (human) (UniProt Q16832)
DMPK (human) = DMPK (human) (UniProt Q09013)
EPHA7 (human) = EPHA7 (human) (UniProt Q15375)
EPHA8 (human) = EPHA8 (human) (UniProt P29322)
FGFR1 (human) = FGFR1 (human) (UniProt P11362)
FGFR3 (human) = FGFR3 (human) (UniProt P22607)
GRK4 (human) = GRK4 (human) (UniProt P32298)
GSG2 (human) = GSG2 (human) (UniProt Q8TF76)
HCK (human) = HCK (human) (UniProt P08631)
HIPK2 (human) = HIPK2 (human) (UniProt Q9H2X6)
IKBKE (human) = IKBKE (human) (UniProt Q14164)
INSRR (human) = INSRR (human) (UniProt P14616)
MAPK12 (human) = MAPK12 (human) (UniProt P53778)
MAPK13 (human) = MAPK13 (human) (UniProt O15264)
MARK4 (human) = MARK4 (human) (UniProt Q96L34)
MST4 (human) = MST4 (human) (UniProt Q9P289)
NEK7 (human) = NEK7 (human) (UniProt Q8TDX7)
PAK4 (human) = PAK4 (human) (UniProt O96013)
PKN2 (human) = PKN2 (human) (UniProt Q16513)
PLK1 (human) = PLK1 (human) (UniProt P53350)
PRKCB1 (human) = PRKCB1 (human) (UniProt P05771)
PRKCZ (human) = PRKCZ (human) (UniProt Q05513)
RPS6KA5 KD2 (human) = RPS6KA5 KD2 (human) (UniProt O75582)
RPS6KB2 (human) = RPS6KB2 (human) (UniProt Q9UBS0)
SGK2 (human) = SGK2 (human) (UniProt Q9HBY8)
STK11 (human) = STK11 (human) (UniProt Q15831)
STK17A (human) = STK17A (human) (UniProt Q9UEE5)
TAOK1 (human) = TAOK1 (human) (UniProt Q7L7X3)
TGFBR2 (human) = TGFBR2 (human) (UniProt P37173)
WEE1 (human) = WEE1 (human) (UniProt P30291)
WNK2 (human) = WNK2 (human) (UniProt Q9Y3S1)
YES1 (human) = YES1 (human) (UniProt P07947)
ZAP70 (human) = ZAP70 (human) (UniProt P43403)
AKT2 (human) = AKT2 (human) (UniProt P31751)
CDK5 CDK5R1 p25 (human) = CDK5 CDK5R1 p25 (human) (UniProt Q00535+Q15078)
SRC (human) = SRC (human) (UniProt P12931)

Sequence of RPS6KB2 (human) (Q9UBS0 whole entry, looked up): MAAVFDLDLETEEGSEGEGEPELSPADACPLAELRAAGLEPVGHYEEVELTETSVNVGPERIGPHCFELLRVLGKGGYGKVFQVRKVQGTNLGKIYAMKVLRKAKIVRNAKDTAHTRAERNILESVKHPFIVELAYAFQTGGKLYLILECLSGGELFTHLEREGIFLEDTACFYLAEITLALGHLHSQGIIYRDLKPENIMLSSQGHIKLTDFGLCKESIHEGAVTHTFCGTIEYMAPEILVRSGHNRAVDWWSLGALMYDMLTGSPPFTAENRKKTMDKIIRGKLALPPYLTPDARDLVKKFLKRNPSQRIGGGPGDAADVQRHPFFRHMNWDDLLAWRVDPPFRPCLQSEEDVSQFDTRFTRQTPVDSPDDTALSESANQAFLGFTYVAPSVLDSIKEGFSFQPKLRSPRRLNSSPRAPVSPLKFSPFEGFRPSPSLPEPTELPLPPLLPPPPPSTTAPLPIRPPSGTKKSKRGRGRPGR
Sequence of YES1 (human) (P07947 whole entry, looked up): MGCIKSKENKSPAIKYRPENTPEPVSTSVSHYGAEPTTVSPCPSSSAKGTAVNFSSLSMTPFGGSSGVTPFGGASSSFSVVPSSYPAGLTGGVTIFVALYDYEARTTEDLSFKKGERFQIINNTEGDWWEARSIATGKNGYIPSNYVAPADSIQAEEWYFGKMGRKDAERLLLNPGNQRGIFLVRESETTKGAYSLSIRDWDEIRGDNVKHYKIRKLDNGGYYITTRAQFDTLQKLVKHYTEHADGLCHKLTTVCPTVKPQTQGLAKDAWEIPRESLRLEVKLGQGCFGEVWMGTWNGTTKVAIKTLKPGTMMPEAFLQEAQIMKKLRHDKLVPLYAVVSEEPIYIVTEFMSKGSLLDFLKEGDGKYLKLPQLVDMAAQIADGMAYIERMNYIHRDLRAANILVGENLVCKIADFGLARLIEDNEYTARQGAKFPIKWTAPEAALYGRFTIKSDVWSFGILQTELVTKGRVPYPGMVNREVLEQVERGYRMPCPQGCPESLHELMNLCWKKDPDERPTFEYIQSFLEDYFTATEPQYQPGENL
Sequence of STK17A (human) (Q9UEE5 whole entry, looked up): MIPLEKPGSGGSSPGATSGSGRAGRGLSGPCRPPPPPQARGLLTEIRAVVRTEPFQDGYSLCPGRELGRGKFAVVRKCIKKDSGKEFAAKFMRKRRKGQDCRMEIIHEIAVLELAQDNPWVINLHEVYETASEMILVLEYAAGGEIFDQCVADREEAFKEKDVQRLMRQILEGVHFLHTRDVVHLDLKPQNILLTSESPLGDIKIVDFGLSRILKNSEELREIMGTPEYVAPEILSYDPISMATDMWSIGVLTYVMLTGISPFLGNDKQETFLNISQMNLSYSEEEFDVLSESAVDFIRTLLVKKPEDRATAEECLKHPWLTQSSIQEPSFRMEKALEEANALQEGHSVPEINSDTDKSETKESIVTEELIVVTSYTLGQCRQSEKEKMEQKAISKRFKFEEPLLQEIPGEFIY
Sequence of PRKCZ (human) (Q05513 whole entry, looked up): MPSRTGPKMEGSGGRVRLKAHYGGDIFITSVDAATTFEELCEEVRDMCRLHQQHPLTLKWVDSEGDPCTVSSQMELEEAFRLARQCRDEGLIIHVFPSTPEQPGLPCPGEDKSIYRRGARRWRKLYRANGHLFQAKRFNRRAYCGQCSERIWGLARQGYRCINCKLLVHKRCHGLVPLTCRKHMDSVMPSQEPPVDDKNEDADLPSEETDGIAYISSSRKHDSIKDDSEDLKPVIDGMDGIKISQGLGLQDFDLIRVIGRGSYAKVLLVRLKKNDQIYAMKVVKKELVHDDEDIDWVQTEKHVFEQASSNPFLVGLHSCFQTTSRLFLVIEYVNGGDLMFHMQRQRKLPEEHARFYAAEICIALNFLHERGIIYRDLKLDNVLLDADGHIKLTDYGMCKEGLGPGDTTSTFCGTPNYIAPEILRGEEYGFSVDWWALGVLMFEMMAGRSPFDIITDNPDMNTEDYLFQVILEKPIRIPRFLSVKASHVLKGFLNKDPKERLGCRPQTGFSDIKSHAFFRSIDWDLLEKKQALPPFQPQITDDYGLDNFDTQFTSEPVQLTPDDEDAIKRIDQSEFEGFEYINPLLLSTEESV
Sequence of BMX (human) (P51813 whole entry, looked up): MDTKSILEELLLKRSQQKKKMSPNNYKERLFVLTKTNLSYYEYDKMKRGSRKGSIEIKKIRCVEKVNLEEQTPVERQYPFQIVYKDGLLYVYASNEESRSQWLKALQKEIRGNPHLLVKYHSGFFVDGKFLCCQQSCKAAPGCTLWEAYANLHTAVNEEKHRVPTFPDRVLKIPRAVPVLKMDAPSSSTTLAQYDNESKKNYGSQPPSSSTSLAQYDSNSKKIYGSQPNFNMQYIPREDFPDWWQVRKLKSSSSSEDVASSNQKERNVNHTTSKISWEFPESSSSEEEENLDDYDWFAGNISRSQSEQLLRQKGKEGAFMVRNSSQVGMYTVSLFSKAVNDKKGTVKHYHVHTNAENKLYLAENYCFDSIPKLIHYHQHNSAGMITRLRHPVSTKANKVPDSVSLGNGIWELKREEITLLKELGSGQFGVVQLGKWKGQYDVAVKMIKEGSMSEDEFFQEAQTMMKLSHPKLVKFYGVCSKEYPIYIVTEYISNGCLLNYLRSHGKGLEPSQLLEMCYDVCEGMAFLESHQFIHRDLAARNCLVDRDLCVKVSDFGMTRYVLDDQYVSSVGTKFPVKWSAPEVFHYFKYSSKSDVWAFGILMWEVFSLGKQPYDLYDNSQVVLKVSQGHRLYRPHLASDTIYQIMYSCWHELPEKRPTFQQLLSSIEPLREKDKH
Sequence of BLK (human) (P51451 whole entry, looked up): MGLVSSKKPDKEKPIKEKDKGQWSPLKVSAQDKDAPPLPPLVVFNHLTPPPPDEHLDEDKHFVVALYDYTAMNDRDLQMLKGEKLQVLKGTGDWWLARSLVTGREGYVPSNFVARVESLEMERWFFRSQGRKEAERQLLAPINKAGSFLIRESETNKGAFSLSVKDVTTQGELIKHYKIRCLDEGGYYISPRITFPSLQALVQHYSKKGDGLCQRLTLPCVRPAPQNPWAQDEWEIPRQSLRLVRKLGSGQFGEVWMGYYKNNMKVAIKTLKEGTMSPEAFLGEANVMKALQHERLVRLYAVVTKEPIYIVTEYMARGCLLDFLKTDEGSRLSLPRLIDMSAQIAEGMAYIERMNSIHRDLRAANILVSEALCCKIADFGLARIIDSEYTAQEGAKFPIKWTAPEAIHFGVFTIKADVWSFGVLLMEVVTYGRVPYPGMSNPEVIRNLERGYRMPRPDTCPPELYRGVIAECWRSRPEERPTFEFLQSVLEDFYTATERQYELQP
Sequence of EPHA7 (human) (Q15375 whole entry, looked up): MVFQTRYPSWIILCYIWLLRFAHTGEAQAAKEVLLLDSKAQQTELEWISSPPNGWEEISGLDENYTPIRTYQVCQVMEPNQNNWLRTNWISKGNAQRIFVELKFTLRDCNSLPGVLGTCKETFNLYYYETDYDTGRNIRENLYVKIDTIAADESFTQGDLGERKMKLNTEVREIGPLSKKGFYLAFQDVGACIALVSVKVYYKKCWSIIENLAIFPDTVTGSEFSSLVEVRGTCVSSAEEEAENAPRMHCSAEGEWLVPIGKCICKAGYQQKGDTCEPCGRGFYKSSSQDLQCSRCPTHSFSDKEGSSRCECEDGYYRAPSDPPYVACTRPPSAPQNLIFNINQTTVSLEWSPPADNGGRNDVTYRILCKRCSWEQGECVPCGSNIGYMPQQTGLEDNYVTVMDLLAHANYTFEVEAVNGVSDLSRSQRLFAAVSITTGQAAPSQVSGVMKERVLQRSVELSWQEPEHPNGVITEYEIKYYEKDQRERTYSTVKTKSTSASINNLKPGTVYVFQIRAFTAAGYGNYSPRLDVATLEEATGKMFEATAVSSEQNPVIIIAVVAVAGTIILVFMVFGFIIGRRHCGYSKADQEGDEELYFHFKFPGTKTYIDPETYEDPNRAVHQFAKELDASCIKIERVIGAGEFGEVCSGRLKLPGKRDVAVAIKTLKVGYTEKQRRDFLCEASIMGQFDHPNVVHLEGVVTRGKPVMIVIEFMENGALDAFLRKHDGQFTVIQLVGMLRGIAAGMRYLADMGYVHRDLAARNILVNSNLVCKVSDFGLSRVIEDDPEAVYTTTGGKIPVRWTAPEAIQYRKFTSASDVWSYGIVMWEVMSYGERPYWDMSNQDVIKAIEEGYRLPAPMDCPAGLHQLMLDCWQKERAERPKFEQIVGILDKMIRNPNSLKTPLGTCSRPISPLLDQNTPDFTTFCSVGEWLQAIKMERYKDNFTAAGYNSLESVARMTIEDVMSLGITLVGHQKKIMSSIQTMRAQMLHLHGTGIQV
Sequence of MAPK13 (human) (O15264 whole entry, looked up): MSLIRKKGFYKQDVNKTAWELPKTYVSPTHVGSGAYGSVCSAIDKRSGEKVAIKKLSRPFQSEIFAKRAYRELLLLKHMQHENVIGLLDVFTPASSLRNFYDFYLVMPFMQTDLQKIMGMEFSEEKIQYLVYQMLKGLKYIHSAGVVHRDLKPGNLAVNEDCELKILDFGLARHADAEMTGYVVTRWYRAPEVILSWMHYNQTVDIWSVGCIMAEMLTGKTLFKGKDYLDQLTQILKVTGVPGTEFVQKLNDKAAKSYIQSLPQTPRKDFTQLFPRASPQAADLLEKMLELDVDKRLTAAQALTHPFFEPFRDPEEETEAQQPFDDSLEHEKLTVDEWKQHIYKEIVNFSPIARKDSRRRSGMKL
Sequence of NEK7 (human) (Q8TDX7 whole entry, looked up): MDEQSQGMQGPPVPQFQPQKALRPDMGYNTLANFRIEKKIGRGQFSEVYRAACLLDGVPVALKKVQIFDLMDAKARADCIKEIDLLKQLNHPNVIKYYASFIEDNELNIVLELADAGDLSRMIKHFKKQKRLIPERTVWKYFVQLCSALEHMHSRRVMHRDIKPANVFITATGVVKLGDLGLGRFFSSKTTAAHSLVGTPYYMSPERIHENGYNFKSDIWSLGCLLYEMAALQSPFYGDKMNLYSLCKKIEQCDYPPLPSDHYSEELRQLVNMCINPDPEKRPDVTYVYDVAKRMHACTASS

CCN(CC)CCNC(=O)c1c(C)[nH]c(/C=C2\C(=O)Nc3ccc(F)cc32)c1C
residual activity (BLK (human)): 28.7%
residual activity (BMX (human)): 99%
residual activity (CDK4 CCND3 (human)): 93%
residual activity (CDK7 CCNH MNAT1 (human)): 73.4%
residual activity (CSNK1D (human)): 31.8%
residual activity (DCLK2 (human)): 85%
residual activity (DDR2 (human)): 154%
residual activity (DMPK (human)): 97.7%
residual activity (EPHA7 (human)): 50.8%
residual activity (EPHA8 (human)): 92.1%
residual activity (FGFR1 (human)): 66.1%
residual activity (FGFR3 (human)): 39.7%
residual activity (GRK4 (human)): 75.8%
residual activity (GSG2 (human)): 53.2%
residual activity (HCK (human)): 40%
residual activity (HIPK2 (human)): 41.3%
residual activity (IKBKE (human)): 45.6%
residual activity (INSRR (human)): 21.7%
residual activity (MAPK12 (human)): 95.8%
residual activity (MAPK13 (human)): 92.4%
residual activity (MARK4 (human)): 24.7%
residual activity (MST4 (human)): 110%
residual activity (NEK7 (human)): 93.5%
residual activity (PAK4 (human)): 80.9%
residual activity (PKN2 (human)): 89.1%
residual activity (PLK1 (human)): 96.4%
residual activity (PRKCB1 (human)): 90.2%
residual activity (PRKCZ (human)): 91.7%
residual activity (RPS6KA5 KD2 (human)): 60.1%
residual activity (RPS6KB2 (human)): 113%
residual activity (SGK2 (human)): 93.1%
residual activity (STK11 (human)): 97.2%
residual activity (STK17A (human)): 26.7%
residual activity (TAOK1 (human)): 71.5%
residual activity (TGFBR2 (human)): 92.5%
residual activity (WEE1 (human)): 91.8%
residual activity (WNK2 (human)): 100%
residual activity (YES1 (human)): 5.91%
residual activity (ZAP70 (human)): 97.2%

COc1ccc2c(c[n+](C)c3c4cc5c(cc4ccc23)OCO5)c1OC
residual activity (AKT2 (human)): 93.6%
residual activity (BLK (human)): 98.7%
residual activity (BMX (human)): 104%
residual activity (CDK4 CCND3 (human)): 98.8%
residual activity (CDK5 CDK5R1 p25 (human)): 86.2%
residual activity (CDK7 CCNH MNAT1 (human)): 91.9%
residual activity (CSNK1D (human)): 92.9%
residual activity (DCLK2 (human)): 96%
residual activity (DDR2 (human)): 96.1%
residual activity (DMPK (human)): 100%
residual activity (EPHA7 (human)): 95.4%
residual activity (EPHA8 (human)): 100%
residual activity (FGFR1 (human)): 96%
residual activity (FGFR3 (human)): 99.1%
residual activity (GRK4 (human)): 94.8%
residual activity (GSG2 (human)): 98.8%
residual activity (HIPK2 (human)): 92.6%
residual activity (IKBKE (human)): 101%
residual activity (INSRR (human)): 91.8%
residual activity (MAPK12 (human)): 100%
residual activity (MAPK13 (human)): 97.3%
residual activity (MARK4 (human)): 99.3%
residual activity (MST4 (human)): 89.4%
residual activity (NEK7 (human)): 98.9%
residual activity (PAK4 (human)): 99.5%
residual activity (PKN2 (human)): 93.3%
residual activity (PLK1 (human)): 93.6%
residual activity (PRKCB1 (human)): 100%
residual activity (PRKCZ (human)): 97.7%
residual activity (RPS6KA5 KD2 (human)): 83.3%
residual activity (RPS6KB2 (human)): 99.6%
residual activity (SGK2 (human)): 99.1%
residual activity (SRC (human)): 91.5%
residual activity (STK11 (human)): 82.1%
residual activity (STK17A (human)): 104%
residual activity (TAOK1 (human)): 105%
residual activity (TGFBR2 (human)): 71.6%
residual activity (WEE1 (human)): 108%
residual activity (WNK2 (human)): 98.5%
residual activity (YES1 (human)): 93.8%
residual activity (ZAP70 (human)): 101%

COc1ccc(COc2ccc(Cc3cnc(N)nc3N)cc2OC)cc1
residual activity (AKT2 (human)): 102%
residual activity (BLK (human)): 98.6%
residual activity (BMX (human)): 93.4%
residual activity (CDK4 CCND3 (human)): 107%
residual activity (CDK5 CDK5R1 p25 (human)): 103%
residual activity (CDK7 CCNH MNAT1 (human)): 100%
residual activity (CSNK1D (human)): 98.5%
residual activity (DCLK2 (human)): 101%
residual activity (DDR2 (human)): 99.6%
residual activity (DMPK (human)): 101%
residual activity (EPHA7 (human)): 101%
residual activity (FGFR1 (human)): 108%
residual activity (FGFR3 (human)): 105%
residual activity (GRK4 (human)): 106%
residual activity (GSG2 (human)): 97.7%
residual activity (HIPK2 (human)): 103%
residual activity (IKBKE (human)): 96.7%
residual activity (INSRR (human)): 99.4%
residual activity (MAPK12 (human)): 102%
residual activity (MAPK13 (human)): 96%
residual activity (MARK4 (human)): 89.7%
residual activity (MST4 (human)): 95.5%
residual activity (NEK7 (human)): 100%
residual activity (PAK4 (human)): 101%
residual activity (PKN2 (human)): 90.9%
residual activity (PLK1 (human)): 97.1%
residual activity (PRKCB1 (human)): 102%
residual activity (PRKCZ (human)): 93.4%
residual activity (RPS6KA5 KD2 (human)): 103%
residual activity (RPS6KB2 (human)): 100%
residual activity (SGK2 (human)): 97.5%
residual activity (SRC (human)): 97.9%
residual activity (STK11 (human)): 103%
residual activity (STK17A (human)): 102%
residual activity (TAOK1 (human)): 110%
residual activity (TGFBR2 (human)): 127%
residual activity (WEE1 (human)): 90.3%
residual activity (WNK2 (human)): 94.6%
residual activity (YES1 (human)): 94.8%
residual activity (ZAP70 (human)): 94.3%
